Assay results as given in patent EP0231151A2, “Immunosuppressant agents” (priority 1986, dated 1987).

Experiments:
[1] = molecular target: 5-HT sensitive adenylate cyclase; experiment: Activation of 5-HT sensitive adenylate cyclase of the liver fluke (method of Markstein); format: biochemical; conditions: adenylate cyclase stimulated by serotonin
Source text: A group of compounds comprises compounds which are D₂ agonists without any antagonistic activity. Another group of compounds includes those compounds which are serotonin agonists, e.g. as indicated in standard in vitro binding tests and by activation of 5-HT sensitive adenylate cyclase of the liver fluke according to the method of R.Markstein, Neurochemical effects of some ergot derivatives: A basis for their antiparkinson actions. J.Neural transm 51:39, (1981).
Examples of such compounds include compound C and pergolide. Compound C, pergolide and 5-HT have efficacies of 90,80 and 100 respectively and pD₂ [log EC₅₀] of 6.9, 6.9 and 7.7 respectively in this test on adenylate cyclase stimulated by serotonin.

[2] = Acute toxicity (LD50) in the mouse; conditions: in vivo
Source text: (§1) Toxicity data for some of the comounds of the invention have been published. Such data may be determined by routine experimentation. TOXICITY DATA for representative compounds NTEL = No toxic effect level.

[3] = No toxic effect level (NTEL), repeated oral dosing in rats; conditions: rat, in vivo, 26 weeks, p.o.
Source text: as §1

[4] = No toxic effect level (NTEL) / tolerability, repeated oral dosing in dogs; conditions: dog, in vivo, no toxic effect level, 26 weeks, p.o.
Source text: as §1

adjuvant arthritis = experiment: Freund's adjuvant arthritis in the rat, hind limb thickness; format: in vivo; conditions: 0.1 mg/kg/day s.c. osmotic pump
Procedure: One test model is a rodent model of developing autoimmune adjuvant arthritis. An inhibition of the development of adjuvant arthritis is observed.
In one variante, Myobacterium Butyricum purchased from Difco Laboratories, Detroit, Michigan, was prepared in an emulsion with paraffin subliquidium PHHVI (Siegried Zofingen, Switzerland) at a concentration of 6 mg/ml. During ether anaesthesia a volume of 0.1 ml of this emulsion was injected with a 21 g 1-1/2 inch needle intracutaneously at the base of the tail of male Sprague-Dawley rats (ca 150-175 g). Arthritis occurred in 95% to 100% of the hind legs in the positive control animals. The hind limb (mid-tibial region) thickness was measured with a linear guage (Mitutoyo) coupled to an electronic digital readout (Mitutoyo).
100% of a control group developed adjuvant arthritis. The compounds of the invention are administered by means of a sub-cutaneously sustained osmotic pump, over 7 days or 14 days to groups of 5 animals. Progression of the arthritis and the inhibiting effect of a representative compound, compound B, at 0.1 mg/kg/day are as follows:-

[5] = test system: basal serum prolactin levels; experiment: Lowering basal serum prolactin levels in the male rat (prolactin secretion inhibition); format: in vivo; conditions: Rattus norvegicus, 4 h, read-out: ID50 after 4 hours
Source text: Many of the above mentioned compounds are published as prolactin secretion inhibitors, some of which are extremely potent and have long lasting activity. The potency of the compounds as prolactin secretion inhibitors can be determined in standard tests, e.g. by lowering basal serum prolactin levels in the male rat.
Results with representative compounds include:-

CCCN1C[C@H](CSC)C[C@@H]2c3cccc4[nH]cc(c34)C[C@H]21 [pergolide, 6-n-propyl-8α-methylmercaptomethyl-ergoline-I]
pD₂ [log EC₅₀] [1]: 6.9

CCN(CC)S(=O)(=O)N[C@H]1C[C@@H]2c3cccc4c3c(cn4CC)C[C@H]2N(C)C1 [Compound D, N,N-diethyl-Nʹ-[(8α)-1-ethyl-6-methyl-ergolin-8-yl]-sulfamide]
LD50 at 168 h ([2]; iv, over 7 days, read-out: acute LD₅₀ (mouse) i.v.): 44 mg/kg
LD50 at 336 h ([2]; po, over 14 days, read-out: acute LD₅₀ (mouse) p.o.): 992 mg/kg
NOAEL at 4368 h [3]: 5 to 17 mg/kg/day
NOAEL at 4368 h [4]: 0.3 mg/kg/day

CN1C[C@@H](NS(=O)(=O)N(C)C)C[C@@H]2c3cccc4c3c(cn4C)C[C@H]21 [Compound B, 1,6-dimethyl-8α-(N,N-dimethylsulphamoylamino)-ergoline-I]
Hind Limb Thickness (mm) (adjuvant arthritis; Day 0, 7 days dosing): 6.1 mm
Hind Limb Thickness (mm) (adjuvant arthritis; Day 0, 14 days dosing): 6.0 mm
Hind Limb Thickness (mm) (adjuvant arthritis; Day 3, 7 days dosing): 6.2 mm
Hind Limb Thickness (mm) (adjuvant arthritis; Day 3, 14 days dosing): 6.2 mm
Hind Limb Thickness (mm) (adjuvant arthritis; Day 6, 7 days dosing): 6.2 mm
Hind Limb Thickness (mm) (adjuvant arthritis; Day 6, 14 days dosing): 6.2 mm
Hind Limb Thickness (mm) (adjuvant arthritis; Day 9, 7 days dosing): 6.5 mm
Hind Limb Thickness (mm) (adjuvant arthritis; Day 9, 14 days dosing): 6.7 mm
Hind Limb Thickness (mm) (adjuvant arthritis; Day 12, 7 days dosing): 6.9 mm
Hind Limb Thickness (mm) (adjuvant arthritis; Day 12, 14 days dosing): 7.7 mm
Hind Limb Thickness (mm) (adjuvant arthritis; Day 15, 7 days dosing): 7.6 mm
Hind Limb Thickness (mm) (adjuvant arthritis; Day 15, 14 days dosing): 7.8 mm
Hind Limb Thickness (mm) (adjuvant arthritis; Day 18, 7 days dosing): 7.9 mm
Hind Limb Thickness (mm) (adjuvant arthritis; Day 18, 14 days dosing): 7.9 mm
Hind Limb Thickness (mm) (adjuvant arthritis; Day 21, 7 days dosing): 8.2 mm
Hind Limb Thickness (mm) (adjuvant arthritis; Day 21, 14 days dosing): 8.2 mm
ED50 [5]: 0.003 mg/kg

NCCc1c[nH]c2ccc(O)cc12 [Compound 5-HT]
pD₂ [log EC₅₀] [1]: 7.7
efficacies ([1]; 5-HT = 100): 100
